Values of other authors, collected in patent US11958977B2, “Fluorescently labeled polysaccharide, preparation method therefor, and use thereof” (SUZHOU BAIYUAN GENT CO., LTD., priority 2018, dated 2024).
Where a name gives a salt, the structure may show the parent alone.

Conditions: Solvent: 0.1M H2SO4

SMILES: C=C[C@H]1C[N@@]2CC[C@H]1C[C@H]2[C@H](O)c1ccnc2ccc(OC)cc12 [quinine sulfate]
- Quantum yield of the reference compound: 0.56
